Source: PubChem BioAssay (NCI)
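Tested at 5 concentrations; 48 h exposure; 96-well plates; endpoints linearly interpolated, else capped at highest concentration. GI50 = concentration required for 50% inhibition of growth. TGI: total growth inhibition.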

Tests used:
Experiment in all cases: NCI-60 cell line screen, 48 h; in the data active = GI50 below about 0.43 µM; inactive = the rest
TK-10 renal = tested on: TK-10 renal
A549 NSCLC = tested on: A549 NSCLC
BT-549 breast = tested on: BT-549 breast
RPMI-8226 leukemia = tested on: RPMI-8226 leukemia
NCI-H522 lung = tested on: NCI-H522 lung
SF-268 CNS = tested on: SF-268 CNS
HL-60(TB) leukemia = tested on: HL-60(TB) leukemia
SK-MEL-2 melanoma = tested on: SK-MEL-2 melanoma
NCI-H23 lung = tested on: NCI-H23 lung
MCF7 breast = tested on: MCF7 breast
M14 melanoma = tested on: M14 melanoma
PC-3 prostate = tested on: PC-3 prostate
ACHN renal = tested on: ACHN renal
OVCAR-5 ovarian = tested on: OVCAR-5 ovarian
HT29 colon = tested on: HT29 colon
HCT-15 colon = tested on: HCT-15 colon
SK-OV-3 ovarian = tested on: SK-OV-3 ovarian
CCRF-CEM leukemia = tested on: CCRF-CEM leukemia
SW-620 colon = tested on: SW-620 colon
HOP-92 NSCLC = tested on: HOP-92 NSCLC
SF-295 CNS = tested on: SF-295 CNS
KM12 colon = tested on: KM12 colon
IGROV1 ovarian = tested on: IGROV1 ovarian
SK-MEL-5 melanoma = tested on: SK-MEL-5 melanoma
EKVX NSCLC = tested on: EKVX NSCLC
OVCAR-3 ovarian = tested on: OVCAR-3 ovarian
MDA-MB-435 = tested on: MDA-MB-435
NCI-H460 lung = tested on: NCI-H460 lung
HOP-62 NSCLC = tested on: HOP-62 NSCLC
UACC-257 melanoma = tested on: UACC-257 melanoma
RXF 393 renal = tested on: RXF 393 renal
MOLT-4 leukemia = tested on: MOLT-4 leukemia
OVCAR-8 ovarian = tested on: OVCAR-8 ovarian
SK-MEL-28 melanoma = tested on: SK-MEL-28 melanoma
CAKI-1 renal = tested on: CAKI-1 renal
786-0 renal = tested on: 786-0 renal
NCI/ADR-RES ovarian = tested on: NCI/ADR-RES ovarian
HCT-116 colon = tested on: HCT-116 colon
SR leukemia = tested on: SR leukemia
UO-31 renal = tested on: UO-31 renal
U251 CNS = tested on: U251 CNS
K-562 leukemia = tested on: K-562 leukemia
LOX IMVI melanoma = tested on: LOX IMVI melanoma
DU-145 prostate = tested on: DU-145 prostate

Oc1ccc2oc3ncc(Br)c(-c4ccccc4)c3c2c1
> 100 µM: TGI (TK-10 renal) | TGI (A549 NSCLC) | TGI (BT-549 breast) | TGI (RPMI-8226 leukemia) | TGI (NCI-H522 lung) | TGI (SF-268 CNS) | TGI (HL-60(TB) leukemia) | TGI (SK-MEL-2 melanoma) | TGI (NCI-H23 lung) | TGI (MCF7 breast) | TGI (M14 melanoma) | TGI (PC-3 prostate) | TGI (ACHN renal) | TGI (OVCAR-5 ovarian) | TGI (HT29 colon) | TGI (HCT-15 colon) | TGI (SK-OV-3 ovarian) | TGI (CCRF-CEM leukemia) | TGI (SW-620 colon) | TGI (HOP-92 NSCLC) | TGI (SF-295 CNS) | TGI (KM12 colon) | TGI (IGROV1 ovarian) | TGI (SK-MEL-5 melanoma) | TGI (EKVX NSCLC) | TGI (OVCAR-3 ovarian) | TGI (MDA-MB-435) | TGI (NCI-H460 lung) | TGI (HOP-62 NSCLC) | TGI (UACC-257 melanoma) | TGI (RXF 393 renal) | TGI (MOLT-4 leukemia) | TGI (OVCAR-8 ovarian) | TGI (SK-MEL-28 melanoma) | TGI (CAKI-1 renal) | TGI (786-0 renal) | TGI (NCI/ADR-RES ovarian) | TGI (HCT-116 colon) | TGI (SR leukemia) | TGI (UO-31 renal) | TGI (U251 CNS) | TGI (K-562 leukemia) | TGI (LOX IMVI melanoma) | TGI (DU-145 prostate)
inactive: GI50 (TK-10 renal) > 100 µM | GI50 (A549 NSCLC) > 100 µM | GI50 (BT-549 breast) 76.9 µM | GI50 (RPMI-8226 leukemia) > 100 µM | GI50 (NCI-H522 lung) > 100 µM | GI50 (SF-268 CNS) > 100 µM | GI50 (HL-60(TB) leukemia) > 100 µM | GI50 (SK-MEL-2 melanoma) > 100 µM | GI50 (NCI-H23 lung) > 100 µM | GI50 (MCF7 breast) > 100 µM | GI50 (M14 melanoma) > 100 µM | GI50 (PC-3 prostate) > 100 µM | GI50 (ACHN renal) > 100 µM | GI50 (OVCAR-5 ovarian) > 100 µM | GI50 (HT29 colon) > 100 µM | GI50 (HCT-15 colon) > 100 µM | GI50 (SK-OV-3 ovarian) > 100 µM | GI50 (CCRF-CEM leukemia) > 100 µM | GI50 (SW-620 colon) > 100 µM | GI50 (HOP-92 NSCLC) > 100 µM | GI50 (SF-295 CNS) > 100 µM | GI50 (KM12 colon) > 100 µM | GI50 (IGROV1 ovarian) > 100 µM | GI50 (SK-MEL-5 melanoma) > 100 µM | GI50 (EKVX NSCLC) > 100 µM | GI50 (OVCAR-3 ovarian) > 100 µM | GI50 (MDA-MB-435) > 100 µM | GI50 (NCI-H460 lung) > 100 µM | GI50 (HOP-62 NSCLC) > 100 µM | GI50 (UACC-257 melanoma) > 100 µM | GI50 (RXF 393 renal) > 100 µM | GI50 (MOLT-4 leukemia) > 100 µM | GI50 (OVCAR-8 ovarian) > 100 µM | GI50 (SK-MEL-28 melanoma) > 100 µM | GI50 (CAKI-1 renal) > 100 µM | GI50 (786-0 renal) > 100 µM | GI50 (NCI/ADR-RES ovarian) > 100 µM | GI50 (HCT-116 colon) > 100 µM | GI50 (SR leukemia) 30.4 µM | GI50 (UO-31 renal) > 100 µM | GI50 (U251 CNS) > 100 µM | GI50 (K-562 leukemia) > 100 µM | GI50 (LOX IMVI melanoma) > 100 µM | GI50 (DU-145 prostate) > 100 µM
